Measurements published in the supplement of paper PMC9663587.

Key:
YKL-5-124 = compound: C=CC(=O)Nc1ccc(C(=O)Nc2[nH]nc3c2CN(C(=O)N[C@H](CN(C)C)c2ccccc2)C3(C)C)cc1 [YKL-5-124]; test: GR value, 72 h; higher = faster growth (1 = untreated, <0 = killing);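 note: breast cancer and non-malignant breast epithelial lines, nine half-log doses, viable cells counted by Hoechst and LIVE/DEAD dye imaging versus time-zero plates and DMSO controls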
LEE011/Ribociclib = compound: CN(C)C(=O)c1cc2cnc(Nc3ccc(N4CCNCC4)cn3)nc2n1C1CCCC1 [LEE011/Ribociclib]; test: as above
THZ531 = compound: CN(C)C/C=C/C(=O)Nc1ccc(C(=O)N2CCC[C@@H](Nc3ncc(Cl)c(-c4c[nH]c5ccccc45)n3)C2)cc1 [THZ531]; test: as above
THZ1 = compound: CN(C)C/C=C/C(=O)Nc1ccc(C(=O)Nc2cccc(Nc3ncc(Cl)c(-c4c[nH]c5ccccc45)n3)c2)cc1 [THZ1]; test: as above
[1] = compound: CCc1cnn2c(NCc3ccc[n+]([O-])c3)cc(N3CCCC[C@H]3CCO)nc12; test: as above
Flavopiridol [2] = compound: T1, CN1CC[C@H](c2c(O)cc(O)c3c(=O)cc(-c4ccccc4Cl)oc23)[C@H](O)C1 [Flavopiridol]; test: as above
[3] = compound: CCN1CCN(Cc2ccc(Nc3ncc(F)c(-c4cc(F)c5nc(C)n(C(C)C)c5c4)n3)nc2)CC1; test: as above
BSJ-03-123 [4] = compound: T2, CC(=O)c1c(C)c2cnc(Nc3ccc(N4CCN(CCOCCOCCOCCNC(=O)COc5cccc6c5C(=O)N(C5CCC(=O)NC5=O)C6=O)CC4)cn3)nc2n(C2CCCC2)c1=O [BSJ-03-123]; test: as above
BVD523 = compound: CC(C)Nc1cc(-c2c[nH]c(C(=O)N[C@H](CO)c3cccc(Cl)c3)c2)c(Cl)cn1 [BVD523]
Neratinib/HKI272 = compound: CCOc1cc2ncc(C#N)c(Nc3ccc(OCc4ccccn4)c(Cl)c3)c2cc1NC(=O)/C=C/CN(C)C [Neratinib/HKI272]
R0-3306 = compound: C1=CC2=C(C=CC(=C2)C=C3C(=O)NC(=NCC4=CC=CS4)S3)N=C1 [R0-3306]
AZD5363 = compound: NC1(C(=O)N[C@@H](CCO)c2ccc(Cl)cc2)CCN(c2nc[nH]c3nccc2-3)CC1 [AZD5363]
Flavopiridol [5] = compound: T1, Flavopiridol
[6] = compound: CCC1=CN=CN=C1N2CCN(CC2)CC3=NC4=C(N3)C=C(C=C4)C(F)(F)F
[7] = compound: CO[C@@H](C)Cn1c(=O)n(C)c2cnc3ccc(-c4cncc(C(C)(C)O)c4)cc3c21
Paclitaxel = compound: CC(=O)O[C@H]1C(=O)[C@@]2(C)[C@H]([C@H](OC(=O)c3ccccc3)[C@]3(O)C[C@H](OC(=O)[C@H](O)[C@@H](NC(=O)c4ccccc4)c4ccccc4)C(C)=C1C3(C)C)[C@]1(OC(C)=O)CO[C@@H]1C[C@@H]2O [Paclitaxel]
BSJ-03-123 [8] = compound: T2, BSJ-03-123
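Throughout, for GR50, 72 h: breast cancer and non-malignant breast epithelial cell lines, Deep Dye Drop or Dye Drop imaging, nine half-log doses, GR normalized to time-zero plates and DMSO-only controls.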

HCC1419
GR value (YKL-5-124; 0.001 µM): 0.259 GR | GR value (YKL-5-124; 0.003162 µM): 0.184 GR | GR value (YKL-5-124; 0.01 µM): 0.0618 GR | GR value (YKL-5-124; 0.03162 µM): 0.124 GR | GR value (YKL-5-124; 0.1 µM): -0.0246 GR | GR value (YKL-5-124; 0.3162 µM): -0.0463 GR | GR value (YKL-5-124; 1 µM): -0.0452 GR | GR value (YKL-5-124; 3.162 µM): -0.184 GR | GR value (YKL-5-124; 10 µM): -0.379 GR | GR value (LEE011/Ribociclib; 0.001 µM): 0.953 GR | GR value (LEE011/Ribociclib; 0.003162 µM): 0.835 GR | GR value (LEE011/Ribociclib; 0.01 µM): 0.774 GR | GR value (LEE011/Ribociclib; 0.03162 µM): 0.889 GR | GR value (LEE011/Ribociclib; 0.1 µM): 0.685 GR | GR value (LEE011/Ribociclib; 0.3162 µM): 0.58 GR | GR value (LEE011/Ribociclib; 1 µM): 0.655 GR | GR value (LEE011/Ribociclib; 3.162 µM): 0.561 GR | GR value (LEE011/Ribociclib; 10 µM): 0.525 GR | GR value (THZ531; 0.0001 µM): 0.969 GR | GR value (THZ531; 0.0003162 µM): 1.03 GR | GR value (THZ531; 0.001 µM): 1.02 GR | GR value (THZ531; 0.003162 µM): 0.993 GR | GR value (THZ531; 0.01 µM): 1.18 GR | GR value (THZ531; 0.03162 µM): 1.08 GR | GR value (THZ531; 0.1 µM): 0.772 GR | GR value (THZ531; 0.3162 µM): 0.0179 GR | GR value (THZ531; 1 µM): -0.31 GR | GR value (THZ1; 0.0001 µM): 0.981 GR | GR value (THZ1; 0.0003162 µM): 0.953 GR | GR value (THZ1; 0.001 µM): 1.04 GR | GR value (THZ1; 0.003162 µM): 1.03 GR | GR value (THZ1; 0.01 µM): 1.01 GR | GR value (THZ1; 0.03162 µM): 0.765 GR | GR value (THZ1; 0.1 µM): 0.228 GR | GR value (THZ1; 0.3162 µM): -0.215 GR | GR value (THZ1; 1 µM): -0.386 GR | GR value ([1]; 0.0001 µM): 1.15 GR | GR value ([1]; 0.0003162 µM): 1.16 GR | GR value ([1]; 0.001 µM): 1.06 GR | GR value ([1]; 0.003162 µM): 1.25 GR | GR value ([1]; 0.01 µM): 1.15 GR | GR value ([1]; 0.03162 µM): 0.199 GR | GR value ([1]; 0.1 µM): -0.384 GR | GR value ([1]; 0.3162 µM): -0.426 GR | GR value ([1]; 1 µM): -0.471 GR | GR value (Flavopiridol [2]; 0.0001 µM): 1.06 GR | GR value (Flavopiridol [2]; 0.0003162 µM): 0.994 GR | GR value (Flavopiridol [2]; 0.001 µM): 0.974 GR | GR value (Flavopiridol [2]; 0.003162 µM): 0.95 GR | GR value (Flavopiridol [2]; 0.01 µM): 0.932 GR | GR value (Flavopiridol [2]; 0.03162 µM): 0.894 GR | GR value (Flavopiridol [2]; 0.1 µM): 0.658 GR | GR value (Flavopiridol [2]; 0.3162 µM): 0.396 GR | GR value (Flavopiridol [2]; 1 µM): -0.261 GR | GR value ([3]; 0.001 µM): 1.13 GR | GR value ([3]; 0.003162 µM): 0.823 GR | GR value ([3]; 0.01 µM): 0.714 GR | GR value ([3]; 0.03162 µM): 0.548 GR | GR value ([3]; 0.1 µM): 0.548 GR | GR value ([3]; 0.3162 µM): 0.415 GR | GR value ([3]; 1 µM): 0.487 GR | GR value ([3]; 3.162 µM): 0.303 GR | GR value ([3]; 10 µM): 0.2 GR | GR value (BSJ-03-123 [4]; 0.001 µM): 0.753 GR | GR value (BSJ-03-123 [4]; 0.003162 µM): 0.75 GR | GR value (BSJ-03-123 [4]; 0.01 µM): 0.669 GR | GR value (BSJ-03-123 [4]; 0.03162 µM): 0.644 GR | GR value (BSJ-03-123 [4]; 0.1 µM): 0.643 GR | GR value (BSJ-03-123 [4]; 0.3162 µM): 0.527 GR | GR value (BSJ-03-123 [4]; 1 µM): 0.432 GR | GR value (BSJ-03-123 [4]; 3.162 µM): 0.443 GR | GR value (BSJ-03-123 [4]; 10 µM): 0.165 GR | GR50, 72 h (BVD523): > 10 µM | GR50, 72 h (Neratinib/HKI272): 0.00115 µM | GR50, 72 h (R0-3306): 8.88 µM | GR50, 72 h (AZD5363): > 10 µM | GR50, 72 h (Flavopiridol [5]): 0.191 µM | GR50, 72 h [6]: 5.28 µM | GR50, 72 h [7]: < 0.001 µM | GR50, 72 h (Paclitaxel): 0.00526 µM | GR50, 72 h (BSJ-03-123 [8]): 0.491 µM

CAMA1
GR value (YKL-5-124; 0.001 µM): 0.224 GR | GR value (YKL-5-124; 0.003162 µM): 0.229 GR | GR value (YKL-5-124; 0.01 µM): 0.0682 GR | GR value (YKL-5-124; 0.03162 µM): 0.0899 GR | GR value (YKL-5-124; 0.1 µM): 0.0659 GR | GR value (YKL-5-124; 0.3162 µM): -0.0547 GR | GR value (YKL-5-124; 1 µM): 0.0323 GR | GR value (YKL-5-124; 3.162 µM): 0.0041 GR | GR value (YKL-5-124; 10 µM): -0.591 GR | GR value (LEE011/Ribociclib; 0.001 µM): 0.721 GR | GR value (LEE011/Ribociclib; 0.003162 µM): 0.549 GR | GR value (LEE011/Ribociclib; 0.01 µM): 0.365 GR | GR value (LEE011/Ribociclib; 0.03162 µM): 0.492 GR | GR value (LEE011/Ribociclib; 0.1 µM): 0.285 GR | GR value (LEE011/Ribociclib; 0.3162 µM): 0.207 GR | GR value (LEE011/Ribociclib; 1 µM): 0.21 GR | GR value (LEE011/Ribociclib; 3.162 µM): 0.141 GR | GR value (LEE011/Ribociclib; 10 µM): 0.159 GR | GR value (THZ531; 0.0001 µM): 1.2 GR | GR value (THZ531; 0.0003162 µM): 0.94 GR | GR value (THZ531; 0.001 µM): 0.893 GR | GR value (THZ531; 0.003162 µM): 1.16 GR | GR value (THZ531; 0.01 µM): 1.26 GR | GR value (THZ531; 0.03162 µM): 0.867 GR | GR value (THZ531; 0.1 µM): 0.777 GR | GR value (THZ531; 0.3162 µM): -0.0843 GR | GR value (THZ531; 1 µM): -0.403 GR | GR value (THZ1; 0.0001 µM): 0.892 GR | GR value (THZ1; 0.0003162 µM): 0.979 GR | GR value (THZ1; 0.001 µM): 0.758 GR | GR value (THZ1; 0.003162 µM): 0.755 GR | GR value (THZ1; 0.01 µM): 0.615 GR | GR value (THZ1; 0.03162 µM): 0.549 GR | GR value (THZ1; 0.1 µM): 0.208 GR | GR value (THZ1; 0.3162 µM): -0.0416 GR | GR value (THZ1; 1 µM): -0.467 GR | GR value ([1]; 0.0001 µM): 0.942 GR | GR value ([1]; 0.0003162 µM): 1.05 GR | GR value ([1]; 0.001 µM): 1.01 GR | GR value ([1]; 0.003162 µM): 1 GR | GR value ([1]; 0.01 µM): 0.725 GR | GR value ([1]; 0.03162 µM): -0.0614 GR | GR value ([1]; 0.1 µM): -0.386 GR | GR value ([1]; 0.3162 µM): -0.417 GR | GR value ([1]; 1 µM): -0.494 GR | GR value (Flavopiridol [2]; 0.0001 µM): 1.25 GR | GR value (Flavopiridol [2]; 0.0003162 µM): 1.12 GR | GR value (Flavopiridol [2]; 0.001 µM): 0.73 GR | GR value (Flavopiridol [2]; 0.003162 µM): 1.05 GR | GR value (Flavopiridol [2]; 0.01 µM): 0.907 GR | GR value (Flavopiridol [2]; 0.03162 µM): 0.862 GR | GR value (Flavopiridol [2]; 0.1 µM): 0.807 GR | GR value (Flavopiridol [2]; 0.3162 µM): 0.194 GR | GR value (Flavopiridol [2]; 1 µM): -0.111 GR | GR value ([3]; 0.001 µM): 0.866 GR | GR value ([3]; 0.003162 µM): 0.777 GR | GR value ([3]; 0.01 µM): 0.44 GR | GR value ([3]; 0.03162 µM): 0.272 GR | GR value ([3]; 0.1 µM): 0.257 GR | GR value ([3]; 0.3162 µM): 0.278 GR | GR value ([3]; 1 µM): 0.285 GR | GR value ([3]; 3.162 µM): 0.286 GR | GR value ([3]; 10 µM): 0.223 GR | GR value (BSJ-03-123 [4]; 0.001 µM): 0.778 GR | GR value (BSJ-03-123 [4]; 0.003162 µM): 0.65 GR | GR value (BSJ-03-123 [4]; 0.01 µM): 0.463 GR | GR value (BSJ-03-123 [4]; 0.03162 µM): 0.391 GR | GR value (BSJ-03-123 [4]; 0.1 µM): 0.264 GR | GR value (BSJ-03-123 [4]; 0.3162 µM): 0.238 GR | GR value (BSJ-03-123 [4]; 1 µM): 0.219 GR | GR value (BSJ-03-123 [4]; 3.162 µM): 0.219 GR | GR value (BSJ-03-123 [4]; 10 µM): 0.0155 GR | GR50, 72 h (BVD523): 2.73 µM | GR50, 72 h (Neratinib/HKI272): 2.83 µM | GR50, 72 h (R0-3306): 4.36 µM | GR50, 72 h (AZD5363): 0.0498 µM | GR50, 72 h (Flavopiridol [5]): 0.178 µM | GR50, 72 h [6]: > 10 µM | GR50, 72 h [7]: < 0.001 µM | GR50, 72 h (Paclitaxel): 0.00227 µM | GR50, 72 h (BSJ-03-123 [8]): 0.00879 µM
